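Five compound concentrations were applied to cells in 96-well plates for 48 hours; endpoints were derived by simple linear interpolation of the resulting dose-response curve. GI50 is the concentration that inhibits growth by half.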 The source made the active and inactive calls. No stated cut-off is given here; in the data, active = GI50 up to about 1.1 µM and inactive = higher.

Common to all, as to assay: NCI-60 cell line screen, 48 h
Experiment [1] relates to IGROV-1.
The subject of experiment [2] is SNB-19.
Experiment [3] deals with KM12.
Experiment [4] relates to HOP-92.
For experiment [5], the system named is HL-60.
Experiment [6] concerns SF-539.
Experiment [7] has as its system UACC-257.
Experiment [8] relates to OVCAR-3.
Experiment [9] concerns HCT-116.
In experiment [10] the test system is SW-620.
Experiment [11] concerns CCRF-CEM.
The subject of experiment [12] is NCI-H522.
Experiment [13] relates to NCI-H226.
Experiment [14] has as its system HCC 2998.
The test system of experiment [15] is NCI/ADR-RES.
Experiment [16] relates to RXF 393.
Experiment [17] deals with SR.
In experiment [18] the test system is SNB-75.
Experiment [19] deals with OVCAR-4.
For experiment [20], the system named is SK-MEL-2.

With `CCOC(=O)C1CCC(=O)N1C(=O)c1ccccc1` (stereo not given), the GI50 in experiment [1], in experiment [2], in experiment [3], in experiment [4], in [5] and in [6] was > 100 µM (inactive) each time. Also, the GI50 in experiment [7], in experiment [8], in experiment [9], in experiment [10], in experiment [11] and in experiment [12] was > 100 µM (inactive) throughout. In addition, the GI50 in experiment [13], in experiment [14], in experiment [15], in experiment [16] and in experiment [17] was > 100 µM (inactive) throughout.
Regarding `Cc1noc(C)c1/N=N/c1ccc2nonc2c1N`, the GI50 in experiment [1] was > 100 µM (inactive); in experiment [2], 26.1 µM (inactive); in experiment [3], > 100 µM (inactive); in experiment [4], 87.7 µM (inactive); in experiment [5] it was > 100 µM (inactive); in experiment [6], 23.4 µM (inactive). Besides, the GI50 in [7] is > 100 µM (inactive); in experiment [8], > 100 µM (inactive); in experiment [9] it was > 100 µM (inactive); in experiment [10], > 100 µM (inactive); in [18], 15.1 µM (inactive); in experiment [11], > 100 µM (inactive). Further, the GI50 in experiment [19], in [14], in experiment [20], in experiment [15], in experiment [16] and in experiment [17] was > 100 µM (inactive) in each case.
Consider `CC(C)(C)c1ccc(-c2nc3ccc(Cl)cc3c(=O)o2)cc1`, for which the GI50 in [1] was 18.2 µM (inactive); in [2], 14.5 µM (inactive); in experiment [3], 5.12 µM (inactive); in [4], 11.9 µM (inactive); in experiment [5], 19.4 µM (inactive); in experiment [6] it was 14.7 µM (inactive). In addition, the GI50 in [7] is 31.2 µM (inactive); in experiment [8], 7.78 µM (inactive); in [9] it was 15.6 µM (inactive); in [10], 26.4 µM (inactive); in experiment [18] it was 26.8 µM (inactive); in [11] it was 14.8 µM (inactive). The GI50 is 12.7 µM (inactive) in [12]; 20.5 µM (inactive) in [19]; 12.8 µM (inactive) in experiment [14]; 18.5 µM (inactive) in [20]; 22.7 µM (inactive) in experiment [15]; 39.1 µM (inactive) in experiment [16]. Also, the GI50 in experiment [17] was 16.4 µM (inactive).
As for `COc1ccc(OC)c(CC(=O)c2ccc(O)c(C(=O)NCCc3ccc(F)cc3)c2)c1`, the GI50 in experiment [1] was 3.27 µM (inactive); in experiment [2], 3.79 µM (inactive); in experiment [3] it was 3.42 µM (inactive); in [4] it was 10.8 µM (inactive); in experiment [5] it was 2.16 µM (inactive); in experiment [7], 10.5 µM (inactive). For the same molecule, the GI50 in [8] was 1.43 µM (inactive); in experiment [10], 4.18 µM (inactive); in experiment [18], 2.55 µM (inactive); in experiment [12], 2.79 µM (inactive); in experiment [19], 4.06 µM (inactive); in [14] it was 4.63 µM (inactive). The GI50 in [20] was 2.96 µM (inactive); in experiment [15] it was 2.21 µM (inactive); in experiment [16] it was 1.09 µM (active); in [17], 0.502 µM (active).

These data come from ChEMBL document CHEMBL1201862, “PubChem BioAssay data set” (2004).
